PubChem BioAssay (NCI)
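Where inhibition never reached the appropriate level, the endpoint shown equals the highest concentration tested. Otherwise, values were interpolated linearly from a five-concentration, 48-hour dose response in 96-well plates. Definition used: TGI = concentration required for complete inhibition of growth.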

How the values were obtained:
Assay in all cases: DTP human tumour cell line panel, 48 h
[1] = test system: HT29 colon
[2] = test system: LOX IMVI melanoma
[3] = test system: CCRF-CEM leukemia
[4] = test system: A549 NSCLC
[5] = test system: OVCAR-5 ovarian
[6] = test system: SR leukemia
[7] = test system: MOLT-4 leukemia
[8] = test system: UACC-257 melanoma
[9] = test system: OVCAR-8 ovarian
[10] = test system: COLO 205 colon
[11] = test system: UACC-62 melanoma

| Structure (SMILES) | TGI [1] | TGI [2] | TGI [3] | TGI [4] | TGI [5] | TGI [6] | TGI [7] | TGI [8] | TGI [9] | TGI [10] | TGI [11] |
| --- | --- | --- | --- | --- | --- | --- | --- | --- | --- | --- | --- |
| N#CCC1C2CC3C(C2=O)C13 (stereo not given) | > 100 µM | > 100 µM | > 100 µM | > 100 µM | > 100 µM | > 100 µM | > 100 µM | > 100 µM | > 100 µM | > 100 µM | > 100 µM |
| CC(Cc1cccc2c1Nc1ccccc1S2)N(C)CCO (stereo not given) | > 100 µM | > 100 µM | > 100 µM | > 100 µM | > 100 µM | > 100 µM | > 100 µM | > 100 µM | > 100 µM | > 100 µM | > 100 µM |
| CC1CCC2CC1NC(=O)CCOCCC(=O)NC2(C)C (stereo not given) | > 100 µM | > 100 µM | > 100 µM | > 100 µM | > 100 µM | > 100 µM | > 100 µM | > 100 µM | > 100 µM | > 100 µM | > 100 µM |
| CN1c2ccccc2C(=O)NC12CCNCC2 | > 100 µM | > 100 µM | > 100 µM | > 100 µM | > 100 µM | > 100 µM | > 100 µM | > 100 µM | > 100 µM | > 100 µM | > 100 µM |
| Cc1cnc2c(c1)C(=O)N(c1ccc([N+](=O)[O-])cc1)S2(=O)=O | > 100 µM | > 100 µM | > 100 µM | > 100 µM | > 100 µM | 99.2 µM | > 100 µM | > 100 µM | > 100 µM | > 100 µM | > 100 µM |
| CC(=O)N=c1ccc2nc(N)nn(O)c-2c1 | > 100 µM | > 100 µM | > 100 µM | > 100 µM | > 100 µM | > 100 µM | > 100 µM | > 100 µM | > 100 µM | > 100 µM | > 100 µM |
| Cc1c2ccccc2c(C2C3C(=O)N(c4cccc5ccccc45)C(=O)C3ON2Cc2ccc(CC(N)=O)cc2)c2ccccc12 (stereo not given) | 27 µM | > 50 µM | > 50 µM | > 50 µM | > 50 µM | 37.6 µM | 25.7 µM | 37 µM | > 50 µM | 14.6 µM | 47.3 µM |
| S=C(Nc1ccc2c(c1)oc1ccccc12)c1cccs1 | > 100 µM | > 100 µM | > 100 µM | > 100 µM | > 100 µM | > 100 µM | > 100 µM | > 100 µM | > 100 µM | > 100 µM | > 100 µM |
| C=CC(=O)NCNC(=O)C=C | > 100 µM | > 100 µM | > 100 µM | > 100 µM | > 100 µM | > 100 µM | > 100 µM | > 100 µM | > 100 µM | > 100 µM | > 100 µM |
| C=C(CCC/C(C)=C/C=C/[C@H](C)CCCc1ccoc1)C[C@@H]1OC(=O)[C@H](C)[C@@H]1O | 50 µM | 31.6 µM | 33.6 µM | 15.2 µM | 23.8 µM | 37.8 µM | 29.5 µM | 16.4 µM | 27.5 µM | 27.4 µM | 16.6 µM |
